pIC50: −log10 of the molar value.
Tests used:
UGT1A1 = target: T1, UGT1A1 (Homo sapiens, UniProt P22309); test: In vitro UGT1A1 inhibition, recombinant human enzyme assays (Example 5); format: biochemical
T1 sequence (P22309 26-533): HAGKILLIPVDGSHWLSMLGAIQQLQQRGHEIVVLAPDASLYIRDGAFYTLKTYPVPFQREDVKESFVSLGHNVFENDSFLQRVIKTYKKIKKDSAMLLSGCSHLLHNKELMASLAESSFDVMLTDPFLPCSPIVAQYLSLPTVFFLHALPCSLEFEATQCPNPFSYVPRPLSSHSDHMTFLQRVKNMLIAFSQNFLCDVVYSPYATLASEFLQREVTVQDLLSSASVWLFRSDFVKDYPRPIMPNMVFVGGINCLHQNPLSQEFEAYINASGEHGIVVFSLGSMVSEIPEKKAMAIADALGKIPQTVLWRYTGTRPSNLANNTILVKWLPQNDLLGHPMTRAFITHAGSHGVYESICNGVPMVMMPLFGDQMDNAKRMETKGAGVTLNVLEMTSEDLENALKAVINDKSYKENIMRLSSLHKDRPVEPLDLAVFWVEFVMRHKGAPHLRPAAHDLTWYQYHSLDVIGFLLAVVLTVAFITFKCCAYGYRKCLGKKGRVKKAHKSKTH
From the text: The term “UGT1A1 inhibitor” as used herein refers to a molecule which is capable of binding to human uridine diphosphate (UDP)-glycuronosyl transferase (UGT1A1), particularly in humans or animals and decrease the enzymatic activity of the UGT1A1. […] Whether or not a particular molecule is an UGT1A1 inhibitor can be determined by examining the molecule's IC50 in vitro in a UGT1A1 inhibition assays known in the art.
The inhibition of UGT1A1 was investigated by recombinant human enzyme assays.

[1] = SN-38 PK profile and tolerability in metastatic colorectal cancer patients treated with SCO-101 and FOLFIRI (Example 2); format: in vivo, human
Procedure: Patients with metastatic colorectal cancer were included in a study and treated with a combination of SCO-101 and FOLFIRI (combination of irinotecan, 5-FU and leucovorin) in 14 day treatment cycles. Patients received varying doses of Irinotecan between 50% and 80% of the recommended dose of Irinotecan (180 mg/m^2) according to their individual tolerability, which is standard practise. On days 1, 2, 3, 4, 5 and 6 in each treatment cycle, patients received one fixed daily dose of 150 mg SCO-101 taken in the morning at least 30 minutes before ingestion of food. On day 5 to 7, patients received FOLFIRI as specified for Colorectal cancer combination regimen 2.
Blood plasma samples were analysed for concentrations of SCO-101, irinotecan and SN-38 using Liquid Chromatography with Tandem Mass Spectrometric Detection (LC-MS/MS) bioanalytical method calibrated and validated in the rant 300 to 90.000 ng/ml. The method and system, including validation were according to industry standard. Data were analysed using commercially available software such as Win-Non-Lin (available from Certara inc.)
A trial was setup to address the safety, tolerability, and efficacy of SCO-101 given orally for 6 days followed by FOLFIRI at varying doses from day 5 to 7, in a biweekly schedule, in patients with metastatic colorectal cancer who have formerly been treated with FOLFIRI and afterwards progressed. The first part of the study was a dose-finding study, where the impact of SCO-101 on the pharmacokinetics (PK) of SN-38 was studied.
12 patients from the dose-finding part of the study received 150 mg SCO-101 for 6 days and […] of the recommended dose of FOLFIRI. 6 of the patients had RAS wildtype tumors and these patients were subjected to further analysis.
Blood for pharmacokinetic analysis was sampled from the patients were taken at 1, 2, 4, 8, 24, 48, and 96 hours after treatment with FOLFIRI and SCO-101.

ABCG2 [2] = target: T2, ABCG2 (Homo sapiens, UniProt Q9UNQ0); test: Flux assays (dye-flux, bi-directional flux, 3H-SN38 accumulation, vesicular uptake) in colon cancer cells (Example 4); format: cell-based; conditions: parental and SN38-resistant HT29 and LoVo cells
T2 construct: endogenous in cells; host or cells: HT29 and LoVo, parental and SN38-resistant
T2 sequence (Q9UNQ0 1-655): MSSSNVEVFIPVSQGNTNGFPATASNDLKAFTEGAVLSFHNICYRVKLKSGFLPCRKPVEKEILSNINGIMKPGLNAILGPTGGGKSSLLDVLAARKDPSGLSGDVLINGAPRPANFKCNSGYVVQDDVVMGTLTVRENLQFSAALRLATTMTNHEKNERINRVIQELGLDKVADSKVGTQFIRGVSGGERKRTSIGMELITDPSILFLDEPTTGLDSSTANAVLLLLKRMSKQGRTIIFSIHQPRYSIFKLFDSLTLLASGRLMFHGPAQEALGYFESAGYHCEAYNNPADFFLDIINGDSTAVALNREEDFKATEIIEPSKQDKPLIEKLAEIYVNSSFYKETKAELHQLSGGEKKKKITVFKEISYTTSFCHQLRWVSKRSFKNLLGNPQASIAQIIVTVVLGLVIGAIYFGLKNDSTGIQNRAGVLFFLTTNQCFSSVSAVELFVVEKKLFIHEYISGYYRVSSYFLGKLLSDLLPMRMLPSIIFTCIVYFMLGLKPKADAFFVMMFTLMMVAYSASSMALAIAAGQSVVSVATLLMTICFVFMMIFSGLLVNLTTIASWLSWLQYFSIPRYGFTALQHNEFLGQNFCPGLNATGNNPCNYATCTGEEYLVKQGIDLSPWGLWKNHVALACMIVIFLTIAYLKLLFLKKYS
From the text: (§1) Pairs of parental (sensitive) and SN38-resistant human colon cancer cell lines (HT29 and LoVo) were used. ABCG2 overexpression and effects of SCO-101 on ABCG2 was investigated by western blot, qPCR, dye-flux assays, bi-directional flux assays, 3H-SN38 accumulation assays and vesicular uptake assays. The effect of SCO-101 on SN38 re-sensitization was investigated by cell viability assays (MTT/PrestoBlue) and clonogenic assays.

ABCG2 [3] = target: T2, ABCG2; test: Protein analysis of ABCG2 (western blot) in colon cancer cells (Example 4); format: cell-based
From the text: as §1

pIC50 (UGT1A1; read-out: IC50 towards UGT1A1): ~7.00
UGT1A1 inhibition (in words) (UGT1A1; recombinant human enzyme): potent inhibitor of UGT1A1
Effect on the activity of ABCG2 in flux assays (ABCG2 [2]): inhibited the activity of ABCG2
Effect on ABCG2 protein (ABCG2 [3]): causes degradation of ABCG2
SMILES: O=C(Nc1cc(C(F)(F)F)cc(C(F)(F)F)c1)Nc1ccc(Br)cc1-c1nnn[nH]1 [SCO-101]
Tolerability of the combined treatment ([1]; SCO-101 in combination with FOLFIRI, metastatic colorectal cancer patients): well tolerated
Toxicity profile (adverse events) ([1]; patients treated with SCO-101 and 90 mg irinotecan/m2 (50% FOLFIRI)): only grade 1 and 2 adverse events

From patent publication US20250262188A1, “Methods of Increasing the Plasma Drug Exposure of Anticancer Agents” (Scandion Oncology A/S, priority 2021, published 2025)
